Data from patent US20220324835A1 (Nurix Therapeutics, Inc., priority 2018, published 2022).

Assays:
T-cell = assay: IL-2 secretion from T-cells stimulated with anti-CD3 antibody alone (Biological Example 2); assay type: cell-based; settings: primary human total T-cells, read-out: IL-2 secretion, Anti-CD3 stimulation, fold change over baseline; for fold induction at 1 µM: 1 μM compound
T-cells = assay: In vivo activity: CD25 expression on CD4+ or CD8+ T-cells of mice stimulated with anti-CD3 antibody; settings: 2 μg anti-CD3 antibody, 24 hours
Procedure: A method of determining the pharmacodynamic profile of Cbl-b inhibitors was performed by dosing strains of mice with competent immune systems such as C57BL/6 or BALB/c with a Cbl-b inhibitor. The Cbl-b inhibitor was dissolved in a suitable formulation and administered by one of various routes such as intravenous (IV), intraperitoneal (IP), subcutaneous (SC), or oral (PO), at a suitable dose level and frequency (e.g. twice per day BID or thrice per day TID) as informed by prior pharmacokinetic and tolerability studies. Following administration of the Cbl-b inhibitor, T-cells and indirectly other immune cells (e.g. via cytokine production) were stimulated in vivo by administration of an anti-CD3 antibody or antigen-binding fragment thereof in PBS at defined amounts such as 2 μg or 10 μg per animal by routes such as IV or IP (See Hirsh et al., J. Immunol., 1989; Ferran, et al., Eur. J. Immunol., 1990). Additional study control arms included groups of mice treated with a vehicle formulation alone (i.e., formulation without the Cbl-b inhibitor and anti-CD3 antibody), a formulation containing the Cbl-b inhibitor alone, a formulation containing the anti-CD3 antibody alone, PBS alone, or combinations of these agents. The level of immune activation was then assessed by analysis of plasma cytokine levels and/or expression of activation markers on immune cells (e.g. T-cells). Blood or lymphoid organs (e.g. spleen) were collected at defined time points (e.g. 8 hours or 24 hours). Blood samples were processed to collect plasma for determination of cytokine levels using standard methods known in the art. Cytokines measured included IL-2, IFNγ, and TNFα. Additional blood samples and lymphoid tissues were processed for flow cytometric analysis of immune cells (e.g. T-cells) using standard methods to determine expression of cell type-specific markers and activation markers such as CD25 and/or CD69. Augmentation of immune stimulation by Cbl-b inhibitor administration was assessed by comparing the relative concentrations of cytokines in plasma, or the expression levels of activation markers on immune cells between appropriate groups (e.g. mice treated with Cbl-b inhibitor and 2 μg anti-CD3 antibody versus mice treated with vehicle and 2 μg anti-CD3 antibody).
Cbl-b inhibitors were tested to determine their ability to induce or enhance the level of cytokines (e.g. IL-2, IFNγ, and TNFα) in blood obtained from treated mice stimulated with an anti-CD3 antibody, which is indicative of modulation of the immune response. Cbl-b inhibitors were also tested to determine their ability to induce or enhance the expression of cell surface markers on T-cells (e.g. CD25 and/or CD69) isolated from treated mice stimulated with an anti-CD3 antibody, which is indicative of modulation of the immune response.
Readouts were reported as fold change over baseline. The fold change was calculated from the mean value of mice treated with Cbl-b inhibitor and 2 μg anti-CD3 antibody, with the baseline defined as the mean value of mice treated with vehicle and 2 μg anti-CD3 antibody. Increases in the percentage of cells with surface expression of CD25 on CD4+ T-cells or CD8+ T-cells greater than 1.5-fold over baseline at 24 hours were considered a positive response. Increases in the plasma concentration of IL-2, IFNγ, and TNFα greater than 1.5-fold over baseline at 8 hours post-stimulation were also considered a positive response (Table 8). Fold changes were ranked into bins according to their readouts as follows: A indicates >2.50, B indicates 2.01-2.50, C indicates 1.51-2.00, D indicates 1.00-1.50, and E indicates <1.00.

SMILES	fold induction at 1 µM (T-cell)	CD4+ T-cell % CD25+ (T-cells; 90 mpk PO BID)	CD8+ T-cell % CD25+ (T-cells; 90 mpk PO BID)	CD4+ T-cell % CD25+ (T-cells; 135 mpk PO BID)	CD8+ T-cell % CD25+ (T-cells; 135 mpk PO BID)	CD4+ T-cell % CD25+ (T-cells; 180 mpk PO BID)	CD8+ T-cell % CD25+ (T-cells; 180 mpk PO BID)	other results
Cn1cnnc1CC1(c2cccc(N3Cc4c(cc(CN5CC[C@@H](C#N)C5)cc4C(F)(F)F)C3=O)c2)COC1 [Compound 421, (R)-1-((2-(3-(3-((4-methyl-4H-1,2,4-triazol-3-yl)methyl)oxetan-3-yl)phenyl)-3-oxo-7-(trifluoromethyl)isoindolin-5-yl)methyl)pyrrolidine-3-carbonitrile]	0.101 to 0.15	E (E indicates <1.00)	E (E indicates <1.00)	E (E indicates <1.00)	E (E indicates <1.00)	E (E indicates <1.00)	E (E indicates <1.00)	fold induction at 8 µM (T-cell; 8 μM compound): > 0.201
Cn1cnnc1CC1(c2cccc(N3Cc4c(cc(CN5CCC(C)(F)CC5)cc4C(F)(F)F)C3=O)c2)COC1 [Example 620, 6-((4-fluoro-4-methylpiperidin-1-yl)methyl)-2-(3-(3-((4-methyl-4H-1,2,4-triazol-3-yl)methyl)oxetan-3-yl)phenyl)-4-(trifluoromethyl)isoindolin-1-one]	–	D (D indicates 1.00-1.50)	D (D indicates 1.00-1.50)	D (D indicates 1.00-1.50)	E (E indicates <1.00)	D (D indicates 1.00-1.50)	E (E indicates <1.00)	–
CN1CC2CCC(C1)N2c1cc2c(c(C(F)(F)F)c1)CN(c1cccc(C3(Cc4nncn4C)COC3)c1)C2=O [Compound 386, 2-(3-(3-((4-Methyl-4H-1,2,4-triazol-3-yl)methyl)oxetan-3-yl)phenyl)-6-(3-methyl-3,8-diazabicyclo[3.2.1]octan-8-yl)-4-(trifluoromethyl)isoindolin-1-one]	–	–	–	C (C indicates 1.51-2.00)	D (D indicates 1.00-1.50)	–	–	–
Cn1cnnc1CC1(c2cccc(NC(=O)c3cc(CN4CC[C@H](F)C4)cc(C4CC4)n3)c2)COC1 [Compound 496, 6-cyclopropyl-4-{[(3S)-3-fluoropyrrolidin-1-yl]methyl}-N-(3-{3-[(4-methyl-1,2,4-triazol-3-yl)methyl]oxetan-3-yl}phenyl)pyridine-2-carboxamide]	> 0.201	–	–	C (C indicates 1.51-2.00)	D (D indicates 1.00-1.50)	–	–	–
Cn1cnnc1[C@@H](F)C1(c2cccc(N3Cc4c(cc(CN5CCC(F)CC5)cc4C(F)(F)F)C3=O)c2)COC1 [Example 670a, (S)-2-(3-(3-(fluoro(4-methyl-4H-1,2,4-triazol-3-yl)methyl)oxetan-3-yl)phenyl)-6-((4-fluoropiperidin-1-yl)methyl)-4-(trifluoromethyl)isoindolin-1-one]	–	–	–	B (B indicates 2.01-2.50)	D (D indicates 1.00-1.50)	–	–	–
Cn1cnnc1CC1(c2cccc(N3Cc4c(cc(CN5CCC[C@H](F)C5)cc4C(F)(F)F)C3=O)c2)COC1 [Compound 432, 6-{[(3S)-3-fluoropiperidin-1-yl]methyl}-2-(3-{3-[(4-methyl-4H-1,2,4-triazol-3-yl)methyl]oxetan-3-yl}phenyl)-4-(trifluoromethyl)-2,3-dihydro-1H-isoindol-1-one]	> 0.201	–	–	D (D indicates 1.00-1.50)	D (D indicates 1.00-1.50)	–	–	–
C[C@@H](c1cc2c(c(C(F)(F)F)c1)CN(c1cccc(C3(Cc4nncn4C)COC3)c1)C2=O)N1C[C@H]2C[C@H]2C1 [Compound 541a, 6-((1S)-1-(3-azabicyclo[3.1.0]hexan-3-yl)ethyl)-2-(3-(3-((4-methyl-4H-1,2,4-triazol-3-yl)methyl)oxetan-3-yl)phenyl)-4-(trifluoromethyl)isoindolin-1-one]	> 0.201	–	–	D (D indicates 1.00-1.50)	D (D indicates 1.00-1.50)	–	–	–
Cn1cnnc1[C@H](F)C1(c2cccc(N3Cc4c(cc(CN5CCC(F)CC5)cc4C(F)(F)F)C3=O)c2)COC1 [Example 670b, (R)-2-(3-(3-(fluoro(4-methyl-4H-1,2,4-triazol-3-yl)methyl)oxetan-3-yl)phenyl)-6-((4-fluoropiperidin-1-yl)methyl)-4-(trifluoromethyl)isoindolin-1-one]	–	–	–	C (C indicates 1.51-2.00)	D (D indicates 1.00-1.50)	–	–	–
C[C@H](c1cc2c(c(C(F)(F)F)c1)CN(c1cccc(C3(Cc4nncn4C)COC3)c1)C2=O)N1CCC(C)(F)CC1 [Example 553b, (R)-6-(1-(4-fluoro-4-methylpiperidin-1-yl)ethyl)-2-(3-(3-((4-methyl-4H-1,2,4-triazol-3-yl)methyl)oxetan-3-yl)phenyl)-4-(trifluoromethyl)isoindolin-1-one]	> 0.201	–	–	A (A indicates >2.50)	D (D indicates 1.00-1.50)	–	–	–
C[C@@H](c1cc2c(c(C(F)(F)F)c1)CN(c1cccc(C3(Cc4nncn4C)COC3)c1)C2=O)N1CCC(C)(F)CC1 [Example 553a, (S)-6-(1-(4-fluoro-4-methylpiperidin-1-yl)ethyl)-2-(3-(3-((4-methyl-4H-1,2,4-triazol-3-yl)methyl)oxetan-3-yl)phenyl)-4-(trifluoromethyl)isoindolin-1-one]	> 0.201	–	–	D (D indicates 1.00-1.50)	D (D indicates 1.00-1.50)	–	–	–
C[C@@H]1CN(Cc2cc3c(c(C(F)(F)F)c2)CN(c2cccc(C4(Cc5nncn5C)COC4)c2)C3=O)CCO1 [Example 663b, (R)-2-(3-(3-((4-methyl-4H-1,2,4-triazol-3-yl)methyl)oxetan-3-yl)phenyl)-6-((2-methylmorpholino)methyl)-4-(trifluoromethyl)isoindolin-1-one]	–	–	–	C (C indicates 1.51-2.00)	D (D indicates 1.00-1.50)	–	–	CD4+ T-cell % CD25+ (T-cells; 45 mpk PO BID): D (D indicates 1.00-1.50); CD8+ T-cell % CD25+ (T-cells; 45 mpk PO BID): D (D indicates 1.00-1.50)
C[C@H](Cc1nncn1C)c1cccc(NC(=O)c2cc(C3CC3)cc(C(F)(F)F)n2)c1 [Compound 191, (R)-4-cyclopropyl-N-(3-(1-(4-methyl-4H-1,2,4-triazol-3-yl)propan-2-yl)phenyl)-6-(trifluoromethyl)picolinamide]	–	D (D indicates 1.00-1.50)	D (D indicates 1.00-1.50)	D (D indicates 1.00-1.50)	D (D indicates 1.00-1.50)	B (B indicates 2.01-2.50)	D (D indicates 1.00-1.50)	CD4+ T-cell % CD25+ (T-cells; 45 mpk IP BID): C (C indicates 1.51-2.00); CD8+ T-cell % CD25+ (T-cells; 45 mpk IP BID): D (D indicates 1.00-1.50)
C[C@H](c1cc2c(c(C(F)(F)F)c1)CN(c1cccc(C3([C@H](F)c4nncn4C)COC3)c1)C2=O)N1CCC2(CC2)C1 (stereo in doubt) [Example 575, 6-((R)-1-(5-Azaspiro[2.4]heptan-5-yl)ethyl)-2-(3-(3-((S)-fluoro(4-methyl-4H-1,2,4-triazol-3-yl)methyl)oxetan-3-yl)phenyl)-4-(trifluoromethyl)isoindolin-1-one]	–	A (A indicates >2.50)	C (C indicates 1.51-2.00)	–	–	A (A indicates >2.50)	C (C indicates 1.51-2.00)	CD4+ T-cell % CD25+ (T-cells; 45 mpk PO BID): C (C indicates 1.51-2.00); CD8+ T-cell % CD25+ (T-cells; 45 mpk PO BID): D (D indicates 1.00-1.50)
